Data on one molecule can be found in ChEMBL document CHEMBL5154749 (Eur J Med Chem, 2022).

In data set [1] the test system is HT-29. Briefly: Induction of apoptosis in human HT-29 cells assessed as early apoptotic cells at 3 uM measured after 48 hrs in presence of AZD1390 by Annexin V-FITC/Propidium iodide staining based flow cytometry analysis (reference value: 3.81%). Type of data set: functional.
Data set [2] concerns HT-29. Description: Induction of apoptosis in human HT-29 cells assessed as necrotic cells at 1 uM measured after 48 hrs by Annexin V-FITC/Propidium iodide staining based flow cytometry analysis (reference value: 0.73%). Type of data set: functional.
Data set [3] has as its system LoVo. Briefly: Induction of apoptosis in human LoVo cells deficient in ATM assessed as necrotic cells at 3 uM measured after 24 hrs by Annexin V-FITC/Propidium iodide staining based flow cytometry analysis (reference value: 0.84%). Type of data set: functional.
For data set [4], the system named is HT-29. Briefly: Induction of apoptosis in human HT-29 cells assessed as viable cells at 3 uM measured after 48 hrs by Annexin V-FITC/Propidium iodide staining based flow cytometry analysis (reference value: 97.01%). Type of data set: functional. As to conditions: read-out: Activity.
The subject of data set [5] is LoVo. Description: Induction of apoptosis in human LoVo cells deficient in ATM assessed as late apoptotic cells at 3 uM measured after 24 hrs by Annexin V-FITC/Propidium iodide staining based flow cytometry analysis (reference value: 3.32%). Type of data set: functional.
In data set [6] the test system is HT-29. Description: Induction of apoptosis in human HT-29 cells assessed as late apoptotic cells at 1 uM measured after 48 hrs by Annexin V-FITC/Propidium iodide staining based flow cytometry analysis (reference value: 0.71%). Type of data set: functional.
The subject of data set [7] is LoVo. Briefly: Induction of apoptosis in human LoVo cells deficient in ATM assessed as necrotic cells at 0.3 uM measured after 24 hrs by Annexin V-FITC/Propidium iodide staining based flow cytometry analysis (reference value: 0.84%). Type of data set: functional.
In data set [8] the target is Serine/threonine-protein kinase ATR (Homo sapiens, UniProt Q13535). Description: Inhibition of ATR signalling in ATM-deficient human LoVo cells assessed as inhibition of Chk1 phosphorylation incubated for 1 hr followed by hydroxyurea addition measured after 4 hrs by Western blot analysis. Type of data set: cell-based. The following applies: dose <= 3.0 µM, time 5.0 hrs, DDE = dose-dependent effect.

In data set [9] the test system is HT-29. Description: Induction of apoptosis in human HT-29 cells assessed as necrotic cells at 1 uM measured after 48 hrs in presence of AZD1390 by Annexin V-FITC/Propidium iodide staining based flow cytometry analysis (reference value: 0.23%). Type of data set: functional.
Data set [10] is described as follows: Tmax in Sprague-Dawley rat at 10 mg/kg, po measured at 0.083 to 24 hrs by LC-MS/MS method. Type of data set: ADME, organism-based. The following applies: in vivo, time 0.083-24 hrs.
Data set [11] concerns LoVo. Description: Inhibition of colony formation in human LoVo cells assessed as inhibition of cell proliferation incubated for 24 hrs followed by culture medium replenishment with drug-free medium for every 72 hrs and measured after 14 days by crystal violet staining method. The following applies: dose 0.03-3 µM, DDE = dose-dependent effect. Type of data set: functional, cell-based.

The subject of data set [12] is HT-29. Briefly: Induction of apoptosis in human HT-29 cells assessed as necrotic cells at 3 uM measured after 48 hrs in presence of AZD1390 by Annexin V-FITC/Propidium iodide staining based flow cytometry analysis (reference value: 0.23%). Type of data set: functional.
The subject of data set [13] is HT-29. Briefly: Induction of apoptosis in human HT-29 cells assessed as necrotic cells at 0.3 uM measured after 48 hrs by Annexin V-FITC/Propidium iodide staining based flow cytometry analysis (reference value: 0.73%). Type of data set: functional.
For data set [14], the system named is HT-29. Briefly: Induction of apoptosis in human HT-29 cells assessed as early apoptotic cells at 0.3 uM measured after 48 hrs in presence of AZD1390 by Annexin V-FITC/Propidium iodide staining based flow cytometry analysis (reference value: 3.81%). Type of data set: functional.
Data set [15] deals with LoVo. Description: Induction of apoptosis in human LoVo cells deficient in ATM assessed as viable cells at 1 uM measured after 24 hrs by Annexin V-FITC/Propidium iodide staining based flow cytometry analysis (reference value: 91.64%). Type of data set: functional. The following applies: read-out: Activity.
The nature of data set [16]: Toxicity in NOD/SCID mouse xenografted with human LoVo cells assessed as damage in lung at 50 to 100 mg/kg, po administered bid for 30 days measured after 2 hrs post last dose by H and E staining method. Type of data set: organism-based. The following applies: in vivo, 720 h, dose 50-100 mg/kg, time 30 day.
In data set [17] the test system is HT-29. Description: Induction of apoptosis in human HT-29 cells assessed as late apoptotic cells at 0.3 uM measured after 48 hrs by Annexin V-FITC/Propidium iodide staining based FACS cytometry analysis (reference value: 0.71%). Type of data set: functional.
A short description of data set [18]: AUC (0 to infinity) in Sprague-Dawley rat at 5 mg/kg, iv measured at 0.083 to 24 hrs by LC-MS/MS method. Type of data set: ADME, organism-based. Set-up: dose 5 mg/kg, time upper 24 hrs, time lower 0.083 hrs, route iv. The following applies: in vivo.
The nature of data set [19]: Toxicity in NOD/SCID mouse xenografted with human LoVo cells assessed as damage in liver at 50 to 100 mg/kg, po administered bid for 30 days measured after 2 hrs post last dose by H and E staining method. Type of data set: organism-based. The following applies: in vivo, 720 h, dose 50-100 mg/kg, time 30 day.

Structures are written as SMILES.

Serine/threonine-protein kinase ATR, sequence (Q13535 whole entry, looked up): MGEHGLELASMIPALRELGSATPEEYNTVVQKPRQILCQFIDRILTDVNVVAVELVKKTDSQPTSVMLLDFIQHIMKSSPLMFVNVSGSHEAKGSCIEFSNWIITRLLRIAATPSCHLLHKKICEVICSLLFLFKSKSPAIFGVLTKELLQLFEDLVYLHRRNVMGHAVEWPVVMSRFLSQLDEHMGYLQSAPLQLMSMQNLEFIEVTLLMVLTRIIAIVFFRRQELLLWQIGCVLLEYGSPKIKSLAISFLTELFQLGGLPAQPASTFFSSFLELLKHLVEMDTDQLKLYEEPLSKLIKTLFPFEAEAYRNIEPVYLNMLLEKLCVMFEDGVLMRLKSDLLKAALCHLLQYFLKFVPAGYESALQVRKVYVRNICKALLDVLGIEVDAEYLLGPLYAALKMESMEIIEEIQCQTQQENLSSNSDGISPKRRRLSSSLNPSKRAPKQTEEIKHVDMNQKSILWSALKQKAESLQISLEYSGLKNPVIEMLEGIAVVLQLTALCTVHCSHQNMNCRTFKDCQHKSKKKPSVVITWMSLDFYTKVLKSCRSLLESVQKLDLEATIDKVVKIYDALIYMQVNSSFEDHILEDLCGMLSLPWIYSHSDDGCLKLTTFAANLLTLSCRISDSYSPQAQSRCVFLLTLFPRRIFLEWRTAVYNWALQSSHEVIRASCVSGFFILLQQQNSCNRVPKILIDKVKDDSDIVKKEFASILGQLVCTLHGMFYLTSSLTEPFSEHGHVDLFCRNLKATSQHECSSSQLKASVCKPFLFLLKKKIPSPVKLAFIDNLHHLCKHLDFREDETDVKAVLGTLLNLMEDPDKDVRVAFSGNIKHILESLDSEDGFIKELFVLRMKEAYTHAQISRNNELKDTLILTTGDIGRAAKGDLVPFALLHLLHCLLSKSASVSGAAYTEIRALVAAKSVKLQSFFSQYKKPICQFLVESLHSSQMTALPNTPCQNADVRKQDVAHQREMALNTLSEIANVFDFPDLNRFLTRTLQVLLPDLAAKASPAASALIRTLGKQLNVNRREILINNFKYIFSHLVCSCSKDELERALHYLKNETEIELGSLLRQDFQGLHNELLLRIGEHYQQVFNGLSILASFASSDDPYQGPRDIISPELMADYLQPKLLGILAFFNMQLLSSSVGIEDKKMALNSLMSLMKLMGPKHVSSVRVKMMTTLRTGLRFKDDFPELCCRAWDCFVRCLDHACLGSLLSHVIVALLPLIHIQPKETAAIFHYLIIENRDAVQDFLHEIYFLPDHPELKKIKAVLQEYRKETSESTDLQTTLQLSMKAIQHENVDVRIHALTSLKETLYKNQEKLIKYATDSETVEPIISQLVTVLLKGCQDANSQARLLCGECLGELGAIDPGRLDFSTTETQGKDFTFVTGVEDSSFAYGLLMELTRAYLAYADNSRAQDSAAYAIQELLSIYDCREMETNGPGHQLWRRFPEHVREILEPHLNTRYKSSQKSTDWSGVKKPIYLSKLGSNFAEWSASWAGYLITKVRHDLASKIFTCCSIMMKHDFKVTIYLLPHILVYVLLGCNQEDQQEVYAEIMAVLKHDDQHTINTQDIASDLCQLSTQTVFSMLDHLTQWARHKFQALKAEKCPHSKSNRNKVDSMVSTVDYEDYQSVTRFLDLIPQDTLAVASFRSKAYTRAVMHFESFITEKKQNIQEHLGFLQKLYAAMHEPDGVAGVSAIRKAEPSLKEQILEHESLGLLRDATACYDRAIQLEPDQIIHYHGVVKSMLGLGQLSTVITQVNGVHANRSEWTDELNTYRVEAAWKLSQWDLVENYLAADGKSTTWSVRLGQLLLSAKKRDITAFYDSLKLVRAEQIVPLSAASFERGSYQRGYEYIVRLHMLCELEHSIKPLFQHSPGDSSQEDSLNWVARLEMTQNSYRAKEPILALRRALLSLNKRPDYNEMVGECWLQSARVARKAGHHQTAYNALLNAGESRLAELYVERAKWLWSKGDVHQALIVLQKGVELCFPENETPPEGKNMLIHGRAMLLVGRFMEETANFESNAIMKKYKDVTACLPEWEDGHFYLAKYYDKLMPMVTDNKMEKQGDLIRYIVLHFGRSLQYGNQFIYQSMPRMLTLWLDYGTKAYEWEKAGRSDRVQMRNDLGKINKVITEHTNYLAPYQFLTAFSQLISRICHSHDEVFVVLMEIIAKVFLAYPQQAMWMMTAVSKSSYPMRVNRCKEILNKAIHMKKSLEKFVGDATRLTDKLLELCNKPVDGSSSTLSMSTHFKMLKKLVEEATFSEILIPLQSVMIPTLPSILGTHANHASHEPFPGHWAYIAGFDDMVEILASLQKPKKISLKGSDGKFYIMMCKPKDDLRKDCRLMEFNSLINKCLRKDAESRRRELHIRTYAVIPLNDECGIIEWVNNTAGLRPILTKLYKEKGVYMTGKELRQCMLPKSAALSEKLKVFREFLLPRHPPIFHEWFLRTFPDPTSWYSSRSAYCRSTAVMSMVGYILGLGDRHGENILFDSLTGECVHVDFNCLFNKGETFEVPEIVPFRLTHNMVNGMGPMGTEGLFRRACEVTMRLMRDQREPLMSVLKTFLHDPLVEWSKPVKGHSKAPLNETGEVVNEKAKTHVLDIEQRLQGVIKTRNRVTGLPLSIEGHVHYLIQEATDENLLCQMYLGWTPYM

With `C[C@@H]1COCCN1c1nc(-c2cccc3[nH]ccc23)nc2ccc(-c3ccnn3C)cc12`, the Activity with HT-29 [1] came out at 15.88%; in the data set on HT-29 [2], 1.06%; in the data set on LoVo [3], 3.01%; with LoVo [5], 28.73%; with HT-29 [6], 1.92%; in the data set on LoVo [7] it was 2.71%. The Activity is recorded as 2.1% in the data set on HT-29 [9]; 5.39% in the data set on HT-29 [12]; 1.65% with HT-29 [13]; 7.23% with HT-29 [14]; “Non-Toxic” in data set [16]; 1.51% with HT-29 [17]. Also, the Activity result in [19] is “Non-Toxic”. The viability at 3 µM in the data set with HT-29 [4] was determined as 93.1%. Moreover, the inhibition entry (in [8]; in the data set on LoVo [11]) was “Dde” each time. The Tmax in data set [10] was determined as 1.67 h. In addition, the viability at 1 µM in the data set with LoVo [15] is 47.8%. The same molecule came in with an AUC(0-inf) in [18] of 3150 ng·h/mL.
